Source: patent US8440645B2, “Ceramide production promoter” (Kao Corporation, priority 2008, dated 2013)
Structures can show the parent of a compound that is named as a salt.

Experiments:
[1] = tested on: Normal human epidermal keratinocytes (NHEK(F)); assay: Ceramide production promotion test (Test Example 1); assay type: cell-based; conditions: 3 days culture, control (10% ethanol) defined as 1
Method: Normal human epidermal keratinocytes (NHEK(F)) were seeded into an EpiLife-KG2 (KURABO INDUSTRIES LTD.) 6-well Plate and cultured until the cells became confluent. Thereafter, in replacement of EpiLife-KG2 (containing no proliferation addition factor), Compound 1 (5 mM) and Compound 2 (1 mM) prepared in Production Examples or a control solution (10% ethanol) was added thereto in an amount of 1%. Culture was performed for 3 days, and the cells in each well were separately collected.
Lipids were extracted from the collected cells by Bligh and Dyer method. The extracts were dried with nitrogen, and the residues were redissolved in chloroform and methanol, to thereby prepare lipid samples. Note that the amounts of proteins were determined by a BCA method.
The extracted lipids were subjected to horizontal development twice by using thin layer chromatography (TLC) and chloroform:methanol:acetic acid=190:9:1. The resultant was sprayed with a copper sulfate solution and heated on a hot plate, to thereby detect ceramide. Thereafter, the resultant values were divided by respective protein amounts to calculate amounts of ceramide. […] The numerical values shown in the table are relative values when the amount of ceramide in the control is defined as 1.

human horny layer = assay: Test on effect of improving moisture content in human horny layer (Test Example 2); assay type: in vivo; conditions: 1% Compound 1 solution applied to cheek twice a day, five days a week, 4 weeks; ten men; P<0.1 t-test
Method: Ten men (25 to 40-year-old: mean age 30.5)
A solution containing 1% Compound 1 and a placebo solution containing only a solvent were used as application samples. The solvent used was 95.0% ethanol:1,3-BG:purified water=20:10:70.
The samples were applied twice a day and five days a week. The amount of each sample per application was set to two drops (about 100 μl) from an eye drop bottle.
The test was performed by applying the sample containing 1% Compound 1 to one side of the cheek and the placebo solution to the other side for 4 weeks, followed by measuring moisture contents in the horny layer using a Corneometer. The measurement was performed before the application and after the 4-week application at the same regions on the cheek, and the result of the 1% Compound 1-containing sample side was compared with that of the placebo side.

[2] = tested on: Normal human epidermal keratinocytes (NHEK(F)); assay: Ceramide production promotion test (Test Example 3); assay type: cell-based; conditions: 5 mM solution added in an amount of 1%, 3 days culture
Method: Normal human epidermal keratinocytes (NHEK(F)) were seeded into an EpiLife-KG2 (KURABO INDUSTRIES LTD.) 6-well Plate and cultured until the cells became confluent. […] Culture was performed for 3 days, and the cells in each well were separately collected. Lipids were extracted from the collected cells by a Bligh and Dyer method. The extracts were dried with nitrogen, and the residues were redissolved in chloroform and methanol, to thereby prepare lipid samples. Note that the amounts of proteins were determined by the BCA method. The extracted lipids were subjected to horizontal development twice by using thin layer chromatography (TLC) and chloroform:methanol:acetic acid=190:9:1. The resultant were sprayed with a copper sulfate solution and heated on a hot plate, to thereby detect ceramide. Thereafter, the resultant values were divided by respective protein amounts to calculate amounts of ceramide.

[3] = control (50% ethanol) defined as 1
[4] = control (10% ethanol) defined as 1

Row | Compound | Amount of ceramide (relative value) [2, 4] | also measured
1 | 1-n-tetradecyl-3-ethylglycerol-2-phosphate arginine salt [Compound 1] | – | Amount of ceramide (relative value) ([1]; 5 mM solution added in an amount of 1%): 3.3; Moisture content in the horny layer (Corneometer) compared with placebo-applied side (human horny layer): increase
2 | monoalkyl (having an average alkyl chain length of C13) phosphate potassium salt [Comparative Compound 1, reference compound] | – | Amount of ceramide (relative value) [2, 3]: 0.6
3 | CCCCCCCCCCCCCCOCC(O)COP(=O)(O)O (centres unmarked) [Compound 4, 1-Tetradecylglycerol-3-phosphate monoarginine salt] | 4.3 | –
4 | 1-Isostearylglycerol-3-phosphate monoarginine salt [Compound 7] | 18.9 | –
5 | CCCCCC(C)CCCCCCCCCCCOCC(O)COP(=O)([O-])[O-].[K+].[K+] (centres unmarked) [Compound 8, 1-(12-Methylheptadecyl)glycerol-3-phosphate dipotassium salt] | 10.4 | –
6 | CCCCOCC(COCCCCCCCCCCCCCCCC(C)C)OP(=O)([O-])[O-].[Na+].[Na+] (centres unmarked) [Compound 2, 1-isostearyl-3-butylglycerol-2-phosphate sodium salt] | – | Amount of ceramide (relative value) ([1]; 1 mM solution added in an amount of 1%): 1.5
7 | CCCCCCCCCC(CCCCCCC)COCC(O)COP(=O)(O)O (centres unmarked) [Compound 6, 1-(2-Heptylundecyl)glycerol-3-phosphate monoarginine salt] | 4.0 | –
8 | CCCCCCCCCCCCCCCCCCOCC(O)COP(=O)([O-])[O-].[Na+].[Na+] (centres unmarked) [Compound 5, 1-Octadecylglycerol-3-phosphate disodium salt] | – | Amount of ceramide (relative value) [2, 3]: 2.6
9 | CCCCCCCCCCC(CCCCCCCC)COCC(O)COP(=O)(O)O (centres unmarked) [Compound 9, 1-(2-Octyldodecyl)glycerol-3-phosphate monoarginine salt] | 4.1 | –
10 | CCCCCCCCCCCCOCC(O)COP(=O)([O-])[O-].[Na+].[Na+] (centres unmarked) [Compound 3, 1-Dodecylglycerol-3-phosphate disodium salt] | 3.1 | –
